From US9062013B2, “Positive allosteric modulators of the α7 nicotinic acetylcholine receptor and uses thereof” (Bionomics Limited, priority 2011, dated 2015)

system: scopolamine treated mice; test: T-maze Continuous Alternation Task (T-CAT), scopolamine-induced cognitive impairment; assay type: in vivo; details: test compounds administered 60 min prior, scopolamine 20 min prior to the T-maze session
Text: Scopolamine is a muscarinic receptor antagonist which is used as a standard/reference drug for inducing cognitive deficits in healthy humans and animals.
The T-maze Continuous Alternation Task (T-CAT) measures spontaneous alternation, which is the innate tendency of mice to alternate free choices in a T-maze over a series of successive runs. This sequential procedure relies on working memory and is sensitive to various pharmacological manipulations affecting memory processes.
The T-maze apparatus is made of gray Plexiglas with a main stem (55 cm long×10 cm wide×25 cm high) and two arms (30 cm long×10 cm wide×25 cm high) positioned at 90 degree angle relative to the main stem. A start box (15 cm long×10 cm wide) is separated from the main stem by a sliding door. Sliding doors are also provided to close specific arms during the forced-choice alternation task.
The experimental protocol consists of one single session, which starts with 1 “forced-choice” trial, followed by 14 “free-choice” trials. In the first “forced-choice” trial, the animal is confined for 5 s in the start arm and then it is released while either the left or right goal arm is blocked by a sliding door. The animal will negotiate the maze, eventually enter the open goal arm, and return to the start position. Immediately after the return to the start position, the left or right goal door is opened and the animal is allowed to choose freely between the left and right goal arm (“free choice” trials). The animal is considered to have entered an arm when it places its four paws in the arm. A session is terminated and the animal is removed from the maze as soon as 14 free-choice trials have been performed or 10 min have elapsed, whichever event occurs first. The percentage of alternation over the 14 free-choice trials is determined for each mouse and is used as an index of working memory performance. This percentage is defined as entry in a different arm of the T-maze over successive visits (i.e., left-right-left-right, etc). Scopolamine administered 20 min prior the initiation of the 1-maze session is used to induce disruption in the spontaneous alternation of mice. Test compounds are administered 60 min prior the start of the T-maze session in order to evaluate their ability to reverse the scopolamine effect.
The apparatus is cleaned between each animal using alcohol (70°). Urine and feces are removed from the maze. During the trials, animal handling and the visibility of the operator are minimized as much as possible.

| SMILES | improvement relative to the scopolamine treated mice (spontaneous alternation) |
| --- | --- |
| CC1(C)[C@H](C(=O)Nc2cc(C(F)(F)F)n[nH]2)[C@H]1c1ccc(S(N)(=O)=O)cc1 (relative stereo) [Example 2b, 2,2-Dimethyl-trans-3-(4-sulfamoylphenyl)-N-(3-(trifluoromethyl)-1H-pyrazol-5-yl)cyclopropanecarboxamide] | significant improvement |
| COc1ccc(Cl)cc1NC(=O)[C@@H]1[C@@H](c2ccc(S(N)(=O)=O)cc2)C1(C)C (relative stereo) [Example 4b, trans-N-(5-Chloro-2-methoxyphenyl)-2,2-dimethyl-3-(4-sulfamoylphenyl)cyclopropanecarboxamide] | significant improvement |
| COc1ccc(Cl)cc1NC(=O)[C@@H]1[C@@H](c2ccc(Cl)cc2)C1(C)C (relative stereo) [Example 5a, trans-N-(5-Chloro-2-methoxyphenyl)-3-(4-chlorophenyl)-2,2-dimethylcyclopropanecarboxamide] | significant improvement |
| COc1ccc(Cl)cc1NC(=O)[C@@H]1[C@@H](c2ccc(S(N)(=O)=O)cc2)C12CCCC2 (relative stereo) [Example 6b, trans-N-(5-Chloro-2-methoxyphenyl)-2-(4-sulfamoylphenyl)spiro[2.4]heptane-1-carboxamide] | significant improvement |
| NS(=O)(=O)c1ccc([C@@H]2[C@@H](C(=O)Nc3ccc(C(F)(F)F)cc3)C23CCCC3)cc1 (relative stereo) [Example 9b, trans-2-(4-sulfamoylphenyl)-N-(4-(trifluoromethyl)phenyl)spiro[2.4]heptane-1-carboxamide] | significant improvement |
| CC1(C)[C@H](C(=O)Nc2ccncc2)[C@H]1c1ccc(S(N)(=O)=O)cc1 (relative stereo) [Example 10b, 2,2-Dimethyl-trans-N-(pyridin-4-yl)-3-(4-sulfamoylphenyl)cyclopropanecarboxamide] | significant improvement |

system: not given; test: not given; details: not given

| SMILES | melting point [°C] |
| --- | --- |
| Cc1cnc(NC(=O)[C@@H]2[C@@H](c3ccccc3)C2(C)C)s1 (relative stereo) [Example 1a, 2,2-Dimethyl-trans-N-(5-methylthiazol-2-yl)-3-phenylcyclopropanecarboxamide] | 132 to 135 |
| CC1(C)[C@H](C(=O)Nc2cc(C(F)(F)F)n[nH]2)[C@H]1c1ccccc1 (relative stereo) [Example 2a, 2,2-Dimethyl-trans-3-phenyl-N-(3-(trifluoromethyl)-1H-pyrazol-5-yl)cyclopropanecarboxamide] | 68 to 71 |
| COc1cc(OC)c(NC(=O)[C@@H]2[C@@H](c3ccccc3)C2(C)C)cc1Cl (relative stereo) [Example 3a, trans-N-(5-Chloro-2,4-dimethoxyphenyl)-2,2-dimethyl-3-phenylcyclopropanecarboxamide] | 160 to 162 |
| COc1ccc(Cl)cc1NC(=O)[C@@H]1[C@@H](c2ccccc2)C1(C)C (relative stereo) [Example 4a, trans-N-(5-Chloro-2-methoxyphenyl)-2,2-dimethyl-3-phenylcyclopropanecarboxamide] | 155 to 157 |
| COc1ccc(Cl)cc1NC(=O)[C@@H]1[C@@H](c2ccc(Cl)cc2)C1(C)C (relative stereo) [Example 5a, trans-N-(5-Chloro-2-methoxyphenyl)-3-(4-chlorophenyl)-2,2-dimethylcyclopropanecarboxamide] | 162 to 164 |
| COc1ccc(NC(=O)[C@@H]2[C@@H](c3ccccc3)C23CCCC3)c(OC)n1 (relative stereo) [Example 8a, trans-N-(2,6-dimethoxypyridin-3-yl)-2-phenylspiro[2.4]heptane-1-carboxamide] | 131 to 133 |
| O=C(Nc1ccc(C(F)(F)F)cc1)[C@@H]1[C@@H](c2ccccc2)C12CCCC2 (relative stereo) [Example 9a, trans-2-phenyl-N-(4-(trifluoromethyl)phenyl)spiro[2.4]heptane-1-carboxamide] | 171 to 173 |
| COc1ccc(Cl)cc1NC(=O)[C@@H]1[C@@H](c2ccc(Br)cc2)C1(C)C (relative stereo) [Example 12c, trans-N-(5-Chloro-2-methoxyphenyl)-3-(4-bromophenyl)-2,2-dimethylcyclopropanecarboxamide] | 170 to 172 |
| COc1ncccc1NC(=O)[C@@H]1[C@@H](c2ccccc2)C1(C)C (relative stereo) [Example 13a, trans-N-(2-methoxypyridin-3-yl)-2,2-dimethyl-3-phenylcyclopropanecarboxamide] | 152 to 154 |
| O=C(Nc1ccc(C(F)(F)F)cc1Cl)[C@@H]1[C@@H](c2ccccc2)C12CCCC2 (relative stereo) [Example 15a, trans-2-phenyl-N-[2-chloro-4-(trifluoromethyl)phenyl]spiro[2.4]heptane-1-carboxamide] | 131 to 133 |
| Cc1cccc([C@@H]2[C@@H](C(=O)Nc3ccc(F)c(F)c3)C2(C)C)c1 (relative stereo) [Example 16d, trans-N-(3,4-Difluoro-phenyl)-2,2-dimethyl-3-m-tolyl-cyclopropanecarboxamide] | 110 to 113 |
| COc1ccc(Cl)cc1NC(=O)[C@@H]1[C@@H](c2cccc(C)c2)C1(C)C (relative stereo) [Example 17a, trans-N-(5-Chloro-2-methoxyphenyl)-2,2-dimethyl-3-m-tolyl-cyclopropanecarboxamide] | 148 to 150 |
| COc1ccc(Cl)cc1NC(=O)[C@@H]1[C@@H](c2ccc3c(c2)OC(F)(F)O3)C1(C)C (relative stereo) [Example 18d, trans-N-(5-Chloro-2-methoxyphenyl)-3-(2,2-difluoro-benzo[1,3]dioxol-5-yl)-2,2-dimethyl-cyclopropane carboxamide] | 120 to 122 |
| COc1ccc(Cl)cc1NC(=O)[C@@H]1[C@@H](c2ccccc2)C12CCCC2 [Example 6a, trans-N-(5-Chloro-2-methoxyphenyl)-2-phenylspirol[2.4]heptane-1-carboxamide] | 133 to 135 |
